# Test results taken from patent publication US20140079836A1, “METHODS AND COMPOSITIONS FOR ALTERING HEALTH, WELLBEING, AND LIFESPAN” (LifeSpan Extension, LLC, priority 2008, published 2014).
# “And” between values parts separate entries of the source, which are not always exact repeats. Equal values may be shown once.
# Tested on: entire human genome (gene expression profile)
# Assay: Agilent whole human genome array, skin fibroblasts AG07999, antioxidant with or without UV
# Format: cell-based
# Experimental: Cell cultures: A human skin fibroblast cell culture was obtained through the Coriell Cell Repository from the National Institute on Aging Cell Repository. […] Culture media: Cells were grown in Minimal Essential Medium supplemented with 10% fetal bovine serum, 2 mM L-glutamine, 2 mM Glutamax I. […] All cultures were incubated at 37° C. with 5% CO2 in a humidified chamber. […] On Day 5 after 24 hours of exposure to test conditions, the cells were isolated and the RNA isolated using the RT^2q PCR-grade RNA isolation kit (Superarray Bioscience Corporation). […] Analysis of Agilent Whole Human Genome Arrays: RNA taken from both samples was sent to Cogenics, Inc. Morrisville, N.C. Cogenics, Inc. is a leading, state-of-the-art, microarray service provider that facilitates and accelerates transcriptome profiling and gene discovery processes for industrial and academic researchers. Cogenics' procedure for processing samples is as follows: RNA samples are received and analyzed by Cogenics, Inc. using rigorous standardized procedures that are designed to ensure quality and chain of custody. Each sample undergoes a thorough quality analysis using an Agilent Bioanalyzer microfluidics device, and is precisely quantified using a Nanodrop-1000 spectro-photometer. When the Agilent Oligonucleotide Microarray Platform is utilized, samples are fluorescently labeled using the Agilent Low-Input Linear Amplification Kit. Upon completion of this process, the labeled cRNA products are assessed using the same processes described above. These labeled samples are then fragmented and hybridized to oligonucleotide microarrays. The microarrays are washed and then scanned using an Agilent DNA Microarray Scanner with Sure Scan technology. Data is extracted from the images produced by the scanner using Agilent's Feature Extraction software. At this point, the scanned image is visually inspected for defects, and the extracted data is statistically analyzed to ensure quality of the assay. Extracted data and images can be loaded into Rosetta Resolver Gene Expression Data Analysis System for in-depth analysis, both from a quality standpoint, as well as to develop biological understanding. […] A table was generated and provided as a tab-delimited text file. This file will contain the log ratio, fold-change, log ratio p-value, etc. for every transcript measured by the microarray. Using Rosetta Resolver, a single ratio comparison was compiled based on the results of the two fluorophore reversal hybridization performed in the context of this project. The ratios were calculated such that the Tx sample was in the numerator and the UnTx sample was in the denominator. A table was generated, saved as tab-delimited text files, and is provided on the DVD that accompanied this report in the “Objective—1” subdirectory or the “Data_Analysis” directory. These files contain the log ratio, fold-change, log ratio p-value, etc. for every transcript present on the microarray. […] A table for will be generated and provided as a tab-delimited text file. The file will contain the log ratio, fold-change, log ratio p-value, etc. for only the differentially expressed transcripts within the context of the comparison. […] These criteria were applied to the comparison made in Objective 1. A table was generated, saved as tab-delimited text files, and is provided on the DVD that accompanied this report in the “Objective—1” subdirectory or the “Data_Analysis” directory. […] Cell cultures: A human skin fibroblast cell culture (or cultures) will be obtained through the Coriell Cell Repository from the National Institute on Aging Cell Repository. […] Culture media: Cells will be grown in Minimal Essential Medium supplemented with 10% fetal bovine serum, 2 mM L-glutamine, 2 mM Glutamax I.
smiles,measurement,setting,value
"COC1=C(OC)C(=O)C(CCCCCCCCCCO)=C(C)C1=O [Idebenone, 6-(10-hydroxydecyl)-2,3-dimethoxy-5-methyl-1,4-benzoquin-one]","fold change of gene expression (sequence name in c0), Idebenone + UVB",,n.s.
same,ABL1 Expression,Alone,1.0
same,ACE Expression,Alone,−1.0
same,ACTB Expression,Alone,1.1 and 1.0
same,AK3 Expression,Alone,1.0
same,ALDOA Expression,Alone,1.0
same,ANKRD17 Expression,Alone,−1.0
same,APEX1 Expression,Alone,1.2
same,APEX2 Expression,Alone,−1.1
same,APOE Expression,Alone,1.0
same,ATF2 Expression,Alone,1.1
same,ATIC Expression,Alone,1.0
same,ATM Expression,Alone,1.2
same,ATR Expression,Alone,1.2
same,ATRX Expression,Alone,1.0
same,ATXN3 Expression,Alone,−1.1
same,B2M Expression,Alone,−1.0
same,BARD1 Expression,Alone,1.4
same,BAX Expression,Alone,1.3
same,BCL2 Expression,Alone,1.0
same,BLM Expression,Alone,1.0
same,BPNT1 Expression,Alone,−1.2
same,BRCA1 Expression,Alone,−1.0
same,BRCA2 Expression,Alone,1.1
same,BRIP1 Expression,Alone,1.0
same,BTG2 Expression,Alone,1.0
same,CASP2 Expression,Alone,1.0
same,CASP9 Expression,Alone,−1.0
same,CCNH Expression,Alone,−1.1
same,CDA Expression,Alone,−1.5
same,CDK7 Expression,Alone,1.0
same,CDKN1A Expression,Alone,1.2
same,CDKN2A Expression,Alone,1.0
same,CETN2 Expression,Alone,1.1
same,CHEK1 Expression,Alone,−1.5
same,CHEK2 Expression,Alone,1.1
same,CHUK Expression,Alone,1.0
same,CIB1 Expression,Alone,1.0
same,CIDEA Expression,Alone,1.3
same,CIDEB Expression,Alone,−1.2
same,CLK1 Expression,Alone,1.0
same,CREBBP Expression,Alone,−1.0
same,CRY1 Expression,Alone,1.0
same,CRY2 Expression,Alone,−1.1
same,CSF2 Expression,Alone,2.4
same,CTPS Expression,Alone,1.0
same,CYP19A1 Expression,Alone,1.4
same,DCLRE1C Expression,Alone,1.0
same,DDB1 Expression,Alone,1.9
same,DDB2 Expression,Alone,1.0
same,DDC Expression,Alone,1.0
same,DDIT3 Expression,Alone,1.1
same,DHFR Expression,Alone,1.0
same,DKC1 Expression,Alone,1.0
same,DMC1 Expression,Alone,1.1
same,DPYS Expression,Alone,1.1
same,DUT Expression,Alone,1.5
same,E2F1 Expression,Alone,−1.5
same,E2F2 Expression,Alone,−1.1
same,E2F3 Expression,Alone,−1.5
same,ENTPD4 Expression,Alone,1.1
same,ERCC1 Expression,Alone,1.2
same,ERCC2 Expression,Alone,1.0
same,ERCC3 Expression,Alone,−1.0
same,ERCC4 Expression,Alone,−1.1
same,ERCC5 Expression,Alone,1.0
same,ERCC6 Expression,Alone,1.4
same,ERCC8 Expression,Alone,−1.1
same,ERH Expression,Alone,1.0
same,EXO1 Expression,Alone,1.1
same,FANCA Expression,Alone,1.0
same,FANCC Expression,Alone,−1.0
same,FANCF Expression,Alone,−1.1
same,FANCG Expression,Alone,1.1
same,FEN1 Expression,Alone,−1.0
same,FPGS Expression,Alone,1.2
same,GADD45A Expression,Alone,−1.1
same,GADD45G Expression,Alone,1.0
same,GAPDH Expression,Alone,−1.1
same,GDA Expression,Alone,1.0
same,GH1 Expression,Alone,1.0
same,GML Expression,Alone,−1.3
same,GMPR Expression,Alone,1.0
same,GTF2H1 Expression,Alone,1.1
same,GTF2H2 Expression,Alone,−1.2
same,GTF2H3 Expression,Alone,1.0
same,GTF2H4 Expression,Alone,−1.4
same,GTSE1 Expression,Alone,−1.1
same,HK1 Expression,Alone,−1.1
same,HLA-DRA Expression,Alone,1.0
same,HPRT1 Expression,Alone,1.2 and 1.1
same,HSP90AB1 Expression,Alone,1.1
same,HSPA1A Expression,Alone,1.4
same,HSPA1L Expression,Alone,1.0
same,HTRA1 Expression,Alone,1.1
same,HUS1 Expression,Alone,1.0
same,IFI44 expression,Alone,−1.6
same,IGF1 Expression,Alone,1.0
same,IGF2 Expression,Alone,1.0
same,IGHMBP2 Expression,Alone,1.1
same,IHPK3 Expression,Alone,1.1
same,IL1A Expression,Alone,−1.0
same,IL6 Expression,Alone,−1.0
same,IL10 Expression,Alone,1.1
same,INPPL1 Expression,Alone,−1.2
same,JUN Expression,Alone,1.0
same,KRAS Expression,Alone,−1.2
same,LIG1 Expression,Alone,1.0
same,LIG3 Expression,Alone,1.0
same,LIG4 Expression,Alone,1.0
same,LTA Expression,Alone,−1.1
same,MAP2K6 Expression,Alone,1.0
same,MAPK8 Expression,Alone,−1.3
same,MAPK9 Expression,Alone,−1.0
same,MAPK12 Expression,Alone,−1.0
same,MAPK14 Expression,Alone,1.0
same,MAPKAPK2 Expression,Alone,−1.4
same,MAX Expression,Alone,−1.0
same,MBD4 Expression,Alone,1.0
same,MCM2 Expression,Alone,1.4
same,MDH1 Expression,Alone,1.0
same,MGMT Expression,Alone,−1.3
same,MKI67 Expression,Alone,1.4
same,MLH1 Expression,Alone,1.0
same,MLH3 Expression,Alone,1.0
same,MMP1 Expression,Alone,−1.4
same,MMP2 Expression,Alone,−1.1
same,MMP3 Expression,Alone,2.3
same,MMP7 Expression,Alone,−1.6
same,MMP10 Expression,Alone,1.0
same,MMP11 Expression,Alone,1.1
same,MMP12 Expression,Alone,1.7
same,MMP13 Expression,Alone,1.0
same,MMP14 Expression,Alone,−1.1
same,MMP15 Expression,Alone,−1.0
same,MNAT1 Expression,Alone,1.0
same,MPG Expression,Alone,1.0
same,MRE11A Expression,Alone,1.2
same,MSH2 Expression,Alone,1.0
same,MSH3 Expression,Alone,1.1
same,MSH4 Expression,Alone,1.0
same,MSH6 Expression,Alone,1.0
same,MSRA Expression,Alone,−1.0
same,MT2A Expression,Alone,−1.3
same,MTAP Expression,Alone,1.1
same,MUTYH Expression,Alone,−1.0
same,MVK Expression,Alone,1.6
same,MYBL2 Expression,Alone,1.4
same,MYCBP Expression,Alone,−1.0
same,N4BP2 Expression,Alone,1.1
same,NADSYN1 expression,Alone,1.2
same,NBN Expression,Alone,−1.2
same,NCK1 Expression,Alone,1.0
same,NEIL1 Expression,Alone,1.5
same,NEIL2 Expression,Alone,1.2
same,NEIL3 Expression,Alone,−1.0
same,NF1 Expression,Alone,−1.1
same,NFKB1 expression,Alone,−1.5
same,NFKBIA Expression,Alone,1.0
same,NGFR Expression,Alone,1.0
same,NOS2A Expression,Alone,1.0
same,NP Expression,Alone,−1.2
same,NR1D1 Expression,Alone,−1.6
same,NRG1 Expression,Alone,1.1
same,NTHL1 Expression,Alone,1.1
same,NUDT1 Expression,Alone,1.3
same,NUDT2 Expression,Alone,−1.0
same,OAS1 Expression,Alone,1.3
same,OAS2 Expression,Alone,1.2
same,OAS3 Expression,Alone,1.0
same,OGG1 Expression,Alone,−1.3
same,PAK1 Expression,Alone,−1.0
same,PAPSS1 Expression,Alone,−1.0
same,PAPSS2 Expression,Alone,−1.0
same,PARP1 Expression,Alone,1.3 and 1.2
same,PARP2 Expression,Alone,1.3
same,PCNA Expression,Alone,−1.0
same,PDZK1IP1 Expression,Alone,1.0
same,PITRM1 Expression,Alone,−1.1
same,PKM2 Expression,Alone,−1.1
same,PLAT Expression,Alone,−1.1
same,PLAU Expression,Alone,−1.6
same,PLAUR Expression,Alone,−1.1
same,PLK1 Expression,Alone,1.3
same,POLA2 Expression,Alone,1.0
same,PPARG Expression,Alone,−1.0
same,PPIE Expression,Alone,1.1
same,PRDX6 Expression,Alone,−1.5
same,PSMA2 Expression,Alone,1.1
same,PSMA3 Expression,Alone,1.1
same,PSMC6 Expression,Alone,1.0
same,PSMD1 Expression,Alone,−1.0
same,PSMD11 Expression,Alone,1.1
same,PSMD12 Expression,Alone,1.0
same,PTGS1 Expression,Alone,1.2
same,RAF1 Expression,Alone,−1.0
same,RB1 Expression,Alone,−1.5
same,RET Expression,Alone,−1.0
same,RORA Expression,Alone,−1.2
same,RPL3 Expression,Alone,1.0
same,RPL13A Expression,Alone,−1.0
same,RPS9 Expression,Alone,1.2
same,RPS10 Expression,Alone,1.0
same,RRAS Expression,Alone,−1.1
same,RRM1 Expression,Alone,−1.0
same,S100A7 Expression,Alone,2.7
same,S100A8 Expression,Alone,1.0
same,S100A10 Expression,Alone,−1.7
same,S100A11 Expression,Alone,−1.1
same,SDS Expression,Alone,−2.0
same,SERPINB2 Expression,Alone,−2.9
same,SERPINE1 Expression,Alone,−1.4
same,SHC1 Expression,Alone,1.2 and 1.0
same,SIRT1 Expression,Alone,−1.2
same,SLK Expression,Alone,−1.0
same,SMAD1 Expression,Alone,1.2
same,SNCG Expression,Alone,1.4
same,SOD1 Expression,Alone,−1.0
same,SOD2 Expression,Alone,1.1 and 1.0
same,SPARC Expression,Alone,−1.2
same,SPP1 Expression,Alone,−2.7
same,SPRR1B Expression,Alone,1.0
same,SRI Expression,Alone,−1.0
same,STAT5A Expression,Alone,−1.0
